Active and inactive are the calls of the source. The rule behind the calls is not given here.
Tests used:
Danio rerio [1] = species on record: Danio rerio; experiment: Toxicity in 7-days post fertilized zebra fish larvae after 1.5 to 24 hrs by microscopic analysis; format: organism-based; details: zebrafish, in vivo
Danio rerio [2] = species on record: Danio rerio; experiment: Anticonvulsant activity in 7-days post fertilized zebra fish larvae assessed as reduction in pentylenetetrazol-induced locomotor activity by measuring total distance traveled by larvae pretreated for 3 hrs followed by pentylenetetrazol addition measured at 5 mins interval 30 mins; format: functional, organism-based
Danio rerio [3] = species on record: Danio rerio; experiment: Anticonvulsant activity in 7-days post fertilized zebra fish larvae assessed as reduction in pentylenetetrazol-induced locomotor activity by measuring total distance traveled by larvae at 0.25 to 2 uM pretreated for 3 hrs followed by pentylenetetrazol addition measured at 5 mins interval 30 mins; format: functional, organism-based
Danio rerio [4] = species on record: Danio rerio; experiment: Anticonvulsant activity in 7-days post fertilized zebra fish larvae assessed as reduction in pentylenetetrazol-induced locomotor activity by measuring total distance traveled by larvae at 1.5 to 6 uM pretreated for 3 hrs followed by pentylenetetrazol addition measured at 5 mins interval 30 mins; format: functional, organism-based
Danio rerio [5] = species on record: Danio rerio; experiment: Anticonvulsant activity in 7-days post fertilized zebra fish larvae assessed as reduction in pentylenetetrazol-induced locomotor activity by measuring total distance traveled by larvae at 1.25 to 10 uM pretreated for 3 hrs followed by pentylenetetrazol addition measured at 5 mins interval 30 mins; format: functional, organism-based

| SMILES | MTD (Danio rerio [1]) [µM] | Activity (Danio rerio [2]) | Activity (Danio rerio [3]) | Activity (Danio rerio [4]) | Activity (Danio rerio [5]) |
| --- | --- | --- | --- | --- | --- |
| C=CCc1ccc(O)c(-c2cc(CC=C)ccc2O)c1 [MAGNOLOL] | 4 | Dose-dependent effect |  |  |  |
| C=C[C@]1(C)C=C2CC[C@@H]3[C@](C)(CCC[C@@]3(C)C(=O)O)[C@H]2CC1 [SANDARACOPIMARIC ACID] | 2 |  | Active |  |  |
| CC1=C2[C@H](/C=C(\C)C(=O)O)CC[C@@H](C)[C@H]2CC1 [VALERENIC ACID] | 10 | Dose-dependent effect |  |  |  |
| O=C(/C=C/C=C/c1ccc2c(c1)OCO2)N1CCCCC1 [PIPERINE] | 12 | Dose-dependent effect |  |  |  |
| CC(C)c1ccc2c(c1)CC[C@H]1[C@](C)(C(=O)O)CCC[C@]21C [DEHYDROABIETIC ACID] | 6 |  |  | Active |  |
| CC(C)=CC[C@]12Oc3cc(O)c([C@H]4C=C(C)C[C@H](c5ccc(O)cc5O)[C@H]4C(=O)c4ccc(O)cc4O)c(O)c3C(=O)[C@@]1(O)Oc1cc(O)ccc12 [SANGGENON C] | 2 |  | inactive |  |  |
| C=C(C)[C@H](CC=C(C)C)Cc1c(O)cc(O)c2c1O[C@H](c1ccc(O)cc1O)CC2=O [SOPHORAFLAVANONE G] | 10 |  |  |  | Active |
| CN1C(=O)CN=C(c2ccccc2)c2cc(Cl)ccc21 [DIAZEPAM] | 20 | Dose-dependent effect |  |  |  |

From ChEMBL document CHEMBL4118049, “HPLC-Based Activity Profiling for GABAA Receptor Modulators in Extracts: Validation of an Approach Utilizing a Larval Zebrafish Locomotor Assay” (J Nat Prod, 2017)
